SMILES strings stand for the structures. Marks after values point to notes of the source that are not given here. Starred links: 1 amine or outer side, 2 acyl side, 3 side chain; linkers in the order of their positions; H or OH if unused. Non-standard residues stand in square brackets, D forms with d. Residues, ends and D or L forms follow the SMILES beside them. Groups on a side chain read outwards from the residue. *: point of attachment. C18 diacid = O=C(O)CCCCCCCCCCCCCCCCC(=O)*; γGlu = O=C(O)[C@H](CCC(=O)[*:2])N[*:1]; εLys = N[C@@H](CCCCN[*:1])C(=O)[*:2]; AEEA = NCCOCCOCC(=O)O; Aib = CC(C)(N)C(=O)O

The nature of this data set: Pharmacokinetic study in dogs, oral dosing of tablet compositions with SNAC. Type of data set: in vivo, Beagle dogs. As to the method:
The purpose of this example is to determine the half-life and plasma exposure in vivo of the compounds of the present invention after p.o. administration to beagle dogs, i.e. the terminal half-life and concentration of test substance that reaches circulation with time. This is done in a pharmacokinetic (PK) study, where these parameters of the compound in question are determined. By terminal half-life is generally meant the period of time it takes to halve a certain plasma concentration, measured after the initial distribution phase.
The amount of SNAC in the tablet composition was 100-300 mg, the amount of magnesium stearate in the tablet composition was 7.7 mg, and the target amount of each test substance in the tablet composition was 3-4 mg.
Male beagle dogs, 1-7 years of age and weighing 9-17 kg during the study period, were included in the study. The dogs were dosed in a fasting state. The dogs were group housed in pens (12 hours light: 12 hours dark), and fed individually and restrictedly once daily with Royal Canin Medium Adult dog food (Royal Canin Products, China Branch, or Brogaarden A/S, Denmark). The dogs were used for repeated PK studies with a suitable wash-out period between successive dosing. An appropriate acclimatization period was given prior to initiation of the first PK study. All handling, dosing, and blood sampling of the animals were performed by trained and skilled staff. Before the studies, the dogs were fasted overnight and from 0 to 4 hours after dosing. The dogs were restricted to water 1 hour before dosing until 4 hours after dosing, but otherwise had ad libitum access to water during the whole period.
The compositions were administered by a single oral dosing to the dogs in groups of 6-8 dogs. […] The mouth was then closed, and 10 mL of tap water was given by syringe or gavage to facilitate swallowing of the tablet.
One blood sample was drawn before dosing, and additional samples were drawn at predefined time points after dosing for up to 240 hours, such as up to 10 hours, to adequately cover the full plasma concentration-time absorption profile of the test substance. For each blood sample time point, approximately 0.8 mL of whole blood was collected in a 1.5 mL EDTA-coated tube, which was gently turned to mix the sample with EDTA. Blood samples were collected in EDTA buffer (8 mM) and then centrifuged at 4° C. 2000 g for 10 minutes. Plasma was pipetted into Micronic tubes on dry ice, and kept at −20° C. or lower until analysis. Blood samples were taken as appropriate, for example from a venflon in the cephalic vein in the front leg for the first 2 hours and then with syringe from the jugular vein for the rest of the time points. The first few drops were allowed to drain from the venflon to avoid heparin saline from the venflon in the sample.
All blood samples were collected into test tubes containing EDTA for stabilisation and kept on ice until centrifugation. Plasma was separated from whole blood by centrifugation and the plasma was stored at −20° C. or lower until analysis.
The plasma was analysed for test substance using LC-MS (Liquid Chromatography-Mass Spectrometry) as known to the person skilled in the art. […] RP-HPLC separation was achieved using a linear gradient of 1:1 acetonitrile/methanol in 1% aqueous formic acid using either: a Phenomenex Onyx Monolithic C18 column (50×2.0 mm) and a flow rate of 0.8 mL/min at 30° C.; or an Agilent Poroshell 120 SB-C18 column (50×2.1 mm, 2.7 μm) at a flow rate of 0.4 mL/min at 60° C. The mass spectrometer was operated in either positive ionization SIM mode or positive ionization PRM mode.
For each individual animal, a plasma concentration-time profile was analysed by a non-compartmental model in Pharsight Phoenix WinNonLin ver.

As for `CC[C@H](C)[C@H](NC(=O)[C@H](Cc1ccccc1)NC(=O)[C@H](CCC(=O)O)NC(=O)[C@H](CCCNC(=N)N)NC(=O)[C@H](C)NC(=O)[C@H](C)NC(=O)[C@H](CCC(N)=O)NC(=O)[C@H](CCCCNC(=O)[C@@H](N)CCCCNC(=O)[C@@H](N)CCCCNC(=O)CC[C@H](NC(=O)CCCCCCCCCCCCCCCCC(=O)O)C(=O)O)NC(=O)[C@H](CCC(=O)O)NC(=O)[C@H](CC(C)C)NC(=O)[C@H](CC(C)C)NC(=O)[C@@H](NC(=O)[C@H](CO)NC(=O)[C@H](Cc1ccc(O)cc1)NC(=O)[C@H](CC(=O)O)NC(=O)[C@H](CO)NC(=O)[C@@H](NC(=O)[C@H](Cc1ccccc1)NC(=O)[C@@H](NC(=O)CNC(=O)[C@H](CCC(=O)O)NC(=O)C(C)(C)NC(=O)[C@@H](N)Cc1ccc(O)cc1)[C@@H](C)O)[C@@H](C)O)[C@@H](C)CC)C(=O)N[C@@H](CCC(=O)O)C(=O)N[C@@H](Cc1c[nH]c2ccccc12)C(=O)N[C@@H](CC(C)C)C(=O)N[C@@H](CC(C)C)C(=O)N[C@@H](CCCNC(=N)N)C(=O)NCC(=O)NCC(=O)N1CCC[C@H]1C(=O)N[C@@H](CCC(=O)O)C(=O)N[C@@H](CO)C(=O)NCC(=O)N[C@@H](C)C(=O)N1CCC[C@H]1C(=O)N1CCC[C@H]1C(=O)N1CCC[C@H]1C(=O)N[C@@H](CO)C(=O)O` [Compound No. 28] (H-Y[Aib]EGTFTSDYSILLEK([εLys-εLys-γGlu-C18 diacid])QAAREFIEWLLRGGPESGAPPPS-OH), the AUC/Dose (oral tablet, SNAC 300 mg, test substance 3 mg, Beagle dogs, arithmetic mean) is reported as 18.6** kg*h/L.
`CC[C@H](C)[C@H](NC(=O)[C@H](Cc1ccccc1)NC(=O)[C@H](CCC(=O)O)NC(=O)[C@H](CCC(N)=O)NC(=O)[C@H](C)NC(=O)[C@H](C)NC(=O)[C@H](CCC(N)=O)NC(=O)[C@H](CCCCNC(=O)[C@@H](N)CCCCNC(=O)[C@@H](N)CCCCNC(=O)CC[C@H](NC(=O)CCCCCCCCCCCCCCCCC(=O)O)C(=O)O)NC(=O)[C@H](CCC(=O)O)NC(=O)[C@H](CC(C)C)NC(=O)[C@H](CC(C)C)NC(=O)[C@@H](NC(=O)[C@H](CO)NC(=O)[C@H](Cc1ccc(O)cc1)NC(=O)[C@H](CC(=O)O)NC(=O)[C@H](CO)NC(=O)[C@@H](NC(=O)[C@H](Cc1ccccc1)NC(=O)[C@@H](NC(=O)CNC(=O)[C@H](CCC(=O)O)NC(=O)C(C)(C)NC(=O)[C@@H](N)Cc1ccc(O)cc1)[C@@H](C)O)[C@@H](C)O)[C@@H](C)CC)C(=O)N[C@@H](CCC(=O)O)C(=O)N[C@@H](Cc1c[nH]c2ccccc12)C(=O)N[C@@H](CC(C)C)C(=O)N[C@@H](CC(C)C)C(=O)N[C@@H](C)C(=O)NCC(=O)NCC(=O)N1CCC[C@H]1C(=O)N[C@@H](CO)C(=O)N[C@@H](CO)C(=O)NCC(=O)N[C@@H](C)C(=O)N1CCC[C@H]1C(=O)N1CCC[C@H]1C(=O)N1CCC[C@H]1C(=O)N[C@@H](CO)C(=O)O` [Compound No. 29] (H-Y[Aib]EGTFTSDYSILLEK([εLys-εLys-γGlu-C18 diacid])QAAQEFIEWLLAGGPSSGAPPPS-OH): the AUC/Dose (dog, in vivo, po) is on record as 16.6** kg*h/L.
For the molecule `CC[C@H](C)[C@H](NC(=O)[C@H](Cc1ccccc1)NC(=O)[C@H](CCC(=O)O)NC(=O)[C@H](Cc1c[nH]cn1)NC(=O)[C@H](C)NC(=O)[C@H](C)NC(=O)[C@H](CCC(N)=O)NC(=O)[C@H](CCCCNC(=O)[C@@H](N)CCCCNC(=O)[C@@H](N)CCCCNC(=O)CC[C@H](NC(=O)CCCCCCCCCCCCCCCCC(=O)O)C(=O)O)NC(=O)[C@H](CCC(=O)O)NC(=O)[C@H](CC(C)C)NC(=O)[C@H](CC(C)C)NC(=O)[C@@H](NC(=O)[C@H](CO)NC(=O)[C@H](Cc1ccc(O)cc1)NC(=O)[C@H](CC(=O)O)NC(=O)[C@H](CO)NC(=O)[C@@H](NC(=O)[C@H](Cc1ccccc1)NC(=O)[C@@H](NC(=O)CNC(=O)[C@H](CCC(=O)O)NC(=O)C(C)(C)NC(=O)[C@@H](N)Cc1ccc(O)cc1)[C@@H](C)O)[C@@H](C)O)[C@@H](C)CC)C(=O)N[C@@H](CCC(=O)O)C(=O)N[C@@H](Cc1c[nH]c2ccccc12)C(=O)N[C@@H](CC(C)C)C(=O)N[C@@H](CC(C)C)C(=O)N[C@@H](C)C(=O)NCC(=O)NCC(=O)N1CCC[C@H]1C(=O)N[C@@H](CO)C(=O)N[C@@H](CO)C(=O)NCC(=O)N[C@@H](C)C(=O)N1CCC[C@H]1C(=O)N1CCC[C@H]1C(=O)N1CCC[C@H]1C(=O)N[C@@H](CO)C(=O)O` [Compound No. 30] (H-Y[Aib]EGTFTSDYSILLEK([εLys-εLys-γGlu-C18 diacid])QAAHEFIEWLLAGGPSSGAPPPS-OH; N-terminus assumed), the AUC/Dose (dog, in vivo, po) worked out at 6.5 kg·h/L.
`CC[C@H](C)[C@H](NC(=O)[C@H](Cc1ccccc1)NC(=O)[C@H](CCC(=O)O)NC(=O)[C@H](CCCNC(=N)N)NC(=O)[C@H](C)NC(=O)[C@H](C)NC(=O)[C@H](CCC(N)=O)NC(=O)[C@H](CCCCNC(=O)[C@@H](N)CCCCNC(=O)[C@@H](N)CCCCNC(=O)CC[C@H](NC(=O)CCCCCCCCCCCCCCCCC(=O)O)C(=O)O)NC(=O)[C@H](CCC(=O)O)NC(=O)[C@H](CC(C)C)NC(=O)[C@H](CC(C)C)NC(=O)[C@@H](NC(=O)[C@H](CO)NC(=O)[C@H](Cc1ccc(O)cc1)NC(=O)[C@H](CC(=O)O)NC(=O)[C@H](CO)NC(=O)[C@@H](NC(=O)[C@H](Cc1ccccc1)NC(=O)[C@@H](NC(=O)CNC(=O)[C@H](CCC(=O)O)NC(=O)C(C)(C)NC(=O)[C@@H](N)Cc1ccc(O)cc1)[C@@H](C)O)[C@@H](C)O)[C@@H](C)CC)C(=O)N[C@@H](CCC(=O)O)C(=O)N[C@@H](Cc1c[nH]c2ccccc12)C(=O)N[C@@H](CC(C)C)C(=O)N[C@@H](CC(C)C)C(=O)N[C@@H](C)C(=O)NCC(=O)NCC(=O)N1CCC[C@H]1C(=O)N[C@@H](CO)C(=O)N[C@@H](CO)C(=O)NCC(=O)N[C@@H](C)C(=O)N1CCC[C@H]1C(=O)N1CCC[C@H]1C(=O)N1CCC[C@H]1C(=O)N[C@@H](CO)C(=O)O` [Compound No. 31] (H-Y[Aib]EGTFTSDYSILLEK([εLys-εLys-γGlu-C18 diacid])QAAREFIEWLLAGGPSSGAPPPS-OH; N-terminus assumed): for the setting “dog, in vivo, po”, the AUC/Dose is recorded as 17.9** kg*h/L.
As to `CC[C@H](C)[C@H](NC(=O)[C@H](Cc1ccccc1)NC(=O)[C@H](CCC(=O)O)NC(=O)[C@H](CCCNC(=N)N)NC(=O)[C@H](C)NC(=O)[C@H](C)NC(=O)[C@H](CCC(N)=O)NC(=O)[C@H](CCCCNC(=O)COCCOCCNC(=O)COCCOCCNC(=O)CC[C@H](NC(=O)CCCCCCCCCCCCCCCCC(=O)O)C(=O)O)NC(=O)[C@H](CCC(=O)O)NC(=O)[C@H](CC(C)C)NC(=O)[C@H](CC(C)C)NC(=O)[C@@H](NC(=O)[C@H](CO)NC(=O)[C@H](Cc1ccc(O)cc1)NC(=O)[C@H](CC(=O)O)NC(=O)[C@H](CO)NC(=O)[C@@H](NC(=O)[C@H](Cc1ccccc1)NC(=O)[C@@H](NC(=O)CNC(=O)[C@H](CCC(=O)O)NC(=O)C(C)(C)NC(=O)[C@@H](N)Cc1ccc(O)cc1)[C@@H](C)O)[C@@H](C)O)[C@@H](C)CC)C(=O)N[C@@H](CCC(=O)O)C(=O)N[C@@H](Cc1c[nH]c2ccccc12)C(=O)N[C@@H](CC(C)C)C(=O)N[C@@H](CC(C)C)C(=O)N[C@@H](C)C(=O)NCC(=O)NCC(=O)N1CCC[C@H]1C(=O)N[C@@H](CO)C(=O)N[C@@H](CO)C(=O)NCC(=O)N[C@@H](C)C(=O)N1CCC[C@H]1C(=O)N1CCC[C@H]1C(=O)N1CCC[C@H]1C(=O)N[C@@H](CO)C(=O)O` [Compound No. 32] (H-Y[Aib]EGTFTSDYSILLEK([AEEA-AEEA-γGlu-C18 diacid])QAAREFIEWLLAGGPSSGAPPPS-OH; N-terminus assumed), the AUC/Dose (dog, in vivo, po) is reported as 25.3* kg*h/L.

(Values after patent US20230120597A1, “CO-AGONISTS AT GLP-1 AND GIP RECEPTORS SUITABLE FOR ORAL DELIVERY” (Novo Nordisk A/S, priority 2020, published 2023).)
